PMC12265377, “CC48 a new CB2R agonist/FAAH inhibitor dual drug blocks gastric cancer progression and overcomes paclitaxel resistance” (Journal of Experimental & Clinical Cancer Research : CR, 2025)
Read-outs that look alike come from different tables or passages of the source.

How the values were obtained:
[1] = system: HGC27-R cells; test: Muse caspase 3/7 activation assay; format: cell-based, human; conditions: 48 h
Excerpt: (§1) After the specified drug treatments, the cells were processed using the Muse Annexin V/Dead Cell Assay Kit (Luminex Corporation, Austin, USA) for quantitative analysis of live, early/ late apoptotic, and dead cells on a Muse Cell Analyzer. Briefly, the assay utilized Annexin V to detect phosphatidylserine on the external membrane of apoptotic cells. The fluorescent signal emitted by dye-conjugated antibodies was detected by flow cytometry technology (Muse Cell Analyzer, Luminex Corporation, Austin, USA). 7-Amino-Actinomycin D (7-AAD) dead cell marker was also used. The cells were then analyzed according to the user’s guide. […] After 48 h treatments the cells were processed according to the user’s guide and analyzed with the Muse caspase-3/7 kit (Millipore).The assay provides the relative percentage of living, early/late apoptotic or dead cells.

[2] = system: HGC27-S cells; test: Muse caspase 3/7 activation assay; format: cell-based, human; conditions: 48 h
Excerpt: as §1

[3] = system: NCI-N87 cells; test: Muse caspase 3/7 activation assay; format: cell-based, human
Excerpt: as §1

[4] = system: AGS cells; test: MTT cytotoxicity assay; format: cell-based, human; conditions: read-out: Cytotoxic activity IC50±SEM
Description: (§2) Cell viability was checked with the MTT assay at 48 h and 72 h [24]in HGC27-S/R and AGS gastric cancer cell lines. On day 1, 5000 cells/well were seeded into 96-well plates in a volume of 100 µL. On day 2, each drug was added at the concentrations: 0.1µM, 1µM, 10µM, 30µM, 50µM, 100µM. In all the experiments, the various drug-solvents (ethanol, DMSO) were added in each control to evaluate a possible solvent cytotoxicity. After the established incubation time with drugs (48 h, 72 h), MTT (0.5 mg/mL) was added to each well, and after 3 h incubation at 37 °C, the supernatant was removed. The formazan crystals were solubilized using 100 µL of DMSO and the absorbance values at 570 and 630 nm were determined on the microplate reader Victor 3 from PerkinElmer Life Sciences. Results are expressed as mean ± SD of 3 independent experiments in triplicate.

[5] = system: HGC27-R cells; test: MTT cytotoxicity assay; format: cell-based, human; conditions: read-out: Cytotoxic activity IC50±SEM
Description: as §2

[6] = system: HGC27-S cells; test: MTT cytotoxicity assay; format: cell-based, human; conditions: read-out: Cytotoxic activity IC50±SEM
Description: as §2

[7] = system: HGC27-S cells; test: Muse Ki67 cell proliferation assay; format: cell-based, human
Excerpt: After the specified drug treatments, the cells were processed with the Muse Ki67 cell proliferation kit, which identified actively proliferating cells based on the expression of Ki67, a nuclear protein present in the active phases of the cell cycle (G1, S, G2, and M phases) and absent in the resting G0 phase. The Muse Ki67 Proliferation Assay was used with the Guava Muse Cell Analyzer according to the manufacturer’s instructions (Luminex Corporation, Austin, USA). Briefly, the cells were stained after fixation and permeabilization procedures, using Hu Ki67 or Hu IgG1 control fluorochrome-conjugated antibodies to distinguish Ki67(+) or Ki67(-) cells, respectively. The software provided the percentage of both Ki67(+) and Ki67(-) cells.

[8] = target: CB2R; parameters: method as in PMID 7776818, PMID 36542836, PMID 36657299, PMID 20393015; conditions: ± SEM; read-out: CB2R affinity Ki; cited from earlier work
[9] = system: CB2R; parameters: method as in PMID 7776818, PMID 10188977, PMID 36657299, PMID 20393015; conditions: cited from earlier work
[10] = target: P-gp (Homo sapiens, UniProt P08183); test: P-gp interaction assay (Calcein-AM, MDCK-MDR1 cells)
P-gp, sequence (P08183 whole entry): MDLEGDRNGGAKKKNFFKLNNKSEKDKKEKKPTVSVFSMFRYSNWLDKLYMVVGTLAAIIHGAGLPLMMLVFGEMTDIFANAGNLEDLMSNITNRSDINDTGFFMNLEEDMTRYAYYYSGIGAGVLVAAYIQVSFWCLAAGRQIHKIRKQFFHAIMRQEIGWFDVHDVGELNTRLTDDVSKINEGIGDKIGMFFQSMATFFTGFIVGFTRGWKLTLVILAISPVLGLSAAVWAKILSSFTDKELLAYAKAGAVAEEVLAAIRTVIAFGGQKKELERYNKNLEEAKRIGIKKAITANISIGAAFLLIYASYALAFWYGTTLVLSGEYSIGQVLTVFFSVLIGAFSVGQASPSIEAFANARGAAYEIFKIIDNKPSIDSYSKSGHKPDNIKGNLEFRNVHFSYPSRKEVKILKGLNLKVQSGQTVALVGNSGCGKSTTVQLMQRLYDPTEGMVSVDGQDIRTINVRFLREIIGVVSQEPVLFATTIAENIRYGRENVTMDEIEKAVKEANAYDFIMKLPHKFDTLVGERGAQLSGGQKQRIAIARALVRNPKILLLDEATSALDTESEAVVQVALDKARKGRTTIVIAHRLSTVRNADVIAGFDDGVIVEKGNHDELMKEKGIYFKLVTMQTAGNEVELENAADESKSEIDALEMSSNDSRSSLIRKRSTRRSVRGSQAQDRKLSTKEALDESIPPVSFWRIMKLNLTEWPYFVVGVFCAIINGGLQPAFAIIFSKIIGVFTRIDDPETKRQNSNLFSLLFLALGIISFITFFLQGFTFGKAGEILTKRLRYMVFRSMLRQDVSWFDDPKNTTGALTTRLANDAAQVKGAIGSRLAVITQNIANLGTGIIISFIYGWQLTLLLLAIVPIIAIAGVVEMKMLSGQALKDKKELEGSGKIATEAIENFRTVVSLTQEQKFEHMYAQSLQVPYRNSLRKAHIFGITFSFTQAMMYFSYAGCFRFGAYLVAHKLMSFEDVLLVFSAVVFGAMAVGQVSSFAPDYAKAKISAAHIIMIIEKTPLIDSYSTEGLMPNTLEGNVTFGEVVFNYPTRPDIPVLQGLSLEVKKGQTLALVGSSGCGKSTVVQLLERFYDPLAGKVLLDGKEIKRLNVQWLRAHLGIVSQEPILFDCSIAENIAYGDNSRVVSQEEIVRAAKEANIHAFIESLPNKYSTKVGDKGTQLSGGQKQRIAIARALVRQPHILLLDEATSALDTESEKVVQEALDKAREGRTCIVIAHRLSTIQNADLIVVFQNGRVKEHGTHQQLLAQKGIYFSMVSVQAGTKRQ
Description: This experiment was carried out as described by Contino et al. with minor modifications. MDCK-MDR1 cells, stably overexpressing P-gp, (30.000 cells per well) were seeded into black CulturePlate96/wells plate with 100 µL medium and allowed to become confluent overnight. Each test compound solubilized in culture medium was added to cell monolayers, reaching the tested final concentrations (ranging from 0.1 to 100 µM). Each 96/wells plate was incubated at 37 °C for 30 min. […] Each well was washed 3 times with ice cold PBS. […] In these experimental conditions, Calcein cell accumulation in the absence and presence of tested compounds was evaluated and the fluorescence basal level was estimated in untreated cells. In treated wells the increase of fluorescence compared to basal level was measured. EC50 values were determined on the fluorescence increase percentage versus log [dose].

[11] = single treatment (4 nM PTX, 6 µM AM630, 10 µM others), untreated 18.9%
[12] = combination with 4 nM PTX, PTX alone 26.2%
[13] = single treatment (4 nM PTX, 6 µM AM630, 10 µM others), untreated 13.05%
[14] = NCI-N87, combination with 2 nM PTX, PTX alone 14.6%
[15] = NCI-N87, single treatment (2 nM PTX, 6 µM AM630, 10 µM others), untreated 6.35%
[16] = read-out: P-gp activity, EC50, ± SEM, MDCK-MDR1 cells, Calcein-AM
[17] = HGC27-S, representative flow cytometry chart, 48 h, 10 µM CC48, PTX, single or combined as labelled

Row | SMILES | apoptotic cells (caspase 3/7 activation) ([1]; combination with 4 nM PTX) | apoptotic cells (caspase 3/7 activation) [1, 11] | apoptotic cells (caspase 3/7 activation) [2, 12] | apoptotic cells (caspase 3/7 activation) [2, 13] | cells with activated caspase 3/7 [3, 14] | cells with activated caspase 3/7 [3, 15] | IC50 ([4]; 48h) | IC50 ([4]; 72h) | IC50 ([5]; 48h) | IC50 ([5]; 72h) | IC50 ([6]; 48h) | IC50 ([6]; 72h) | percentage of Ki67+ cells [7] | Ki [8] | EC50 [9] | interaction with P-gp (in words) ([10]; MDCK-MDR1 cells, Calcein-AM) | EC50 [10, 16] | further results
1 | COc1ccc(C(=O)c2c(C)n(CCN3CCOCC3)c3cc(I)ccc23)cc1 [AM630, reference compound] | 62.4% | 32.9% | 44.3% | only a slight increase | 15.9% | 9.5% | 13.4 µM | 7.5 ± 1.2 µM | 19.6 ± 6.15 µM | 19.1 ± 0.93 µM | 20.4 µM | 13.7 ± 1.4 µM | 40.1% | 31.2 nM | 0.9 nM | low interaction with the pump | 16.8 ± 3.2 µM | –
2 | CCCCCNc1ccccc1C(=O)NC12CC3CC(CC(C3)C1)C2 [ASF151] | 50.4% | 42% | no further increase over PTX | 20.25% | 15.9% | 9.5% | 33 µM | 42.3 ± 2.2 µM | 27.4 µM | 28 ± 0.63 µM | 49 µM | 30.1 ± 0.95 µM | 38.6% | 55.7 ± 10.2 nM | 560 nM | excluded interaction with P-gp | > 100 µM | –
3 | O=C(NC12CC3CC(CC(C3)C1)C2)c1ccccc1OCc1ccccc1 [CC48] | 61.4% | 33.8% | 62.7% | 21% | 23.3% | 17.4% | – | – | 21.01 ± 0.002 µM | – | – | – | – | 14.8 ± 4.49 nM | 124 nM | moderate interaction with P-gp | – | dead cells ([2]; single treatment, untreated 6.6%): without affecting the number of dead cells; dead cells ([3]; NCI-N87, single treatment, control 5.8% / 5.6%): 10.4%; IC50 ([4]; Homo sapiens, 48h): 57 µM; IC50 ([4]; Homo sapiens, 72h): 9.8 µM; IC50 ([5]; Homo sapiens, 48 h): 21 µM; IC50 ([5]; Homo sapiens, 72 h): 21.2 ± 0.41 µM; IC50 ([6]; Homo sapiens, 48h): 11.6 µM; IC50 ([6]; Homo sapiens, 72h): 14.5 ± 0.34 µM; percentage of Ki67+ cells ([7]; HGC27-S, 48 h, combination with 4 nM PTX (10 µM compound; 6 µM AM630), PTX alone 58.1%): 42.3%; percentage of Ki67+ cells ([7]; HGC27-S, 48 h, single treatment (10 µM CC48; 4 nM PTX), control 80.50%): 75.75%; Ki67(+) cells [7, 17]: 75.75%; Ki67(-) cells [7, 17]: 24.25%; EC50 [10]: 7.75 ± 1.25 µM
